What was measured:
Assay type in all cases: functional, cell-based
KB = experiment: Cytotoxicity against human KB cells assessed as reduction in cell viability after 5 days by WST-8 assay; details: 120 h
[1] = Cytotoxicity against human NCI-H2110 cells assessed as reduction in cell viability after 5 days by WST-8 assay; details: NCI-H2110, 120 h
NAMALVA = experiment: Cytotoxicity against human NAMALWA cells assessed as reduction in cell viability after 5 days by WST-8 assay; details: 120 h

COC(=O)CCNC(=O)c1cc2cc(NC(=O)c3nc(NC(=O)CCCOc4cc5c(cc4OC)C(=O)N4c6ccccc6C[C@H]4C=N5)cn3C)ccc2o1
IC50 (KB): 0.08 nM | IC50 [1]: 0.5 nM | IC50 (NAMALVA): 0.06 nM

COc1cc2c(cc1OCCCC(=O)Nc1cc(C(=O)Nc3ccc4sc(C(=O)NCC(C)(C)SSC)cc4c3)n(C)c1)N=C[C@@H]1Cc3ccccc3N1C2=O
IC50 (KB): 0.08 nM | IC50 [1]: 0.3 nM | IC50 (NAMALVA): 0.01 nM

COc1cc2c(cc1OCCCC(=O)Nc1cn(C)c(C(=O)Nc3ccc(NC(=O)CCC(C)(C)SSC)cc3)n1)N=C[C@@H]1Cc3ccccc3N1C2=O
IC50 (KB): 0.03 nM | IC50 [1]: 0.4 nM | IC50 (NAMALVA): 0.03 nM

COC(=O)CCNC(=O)c1cc2cc(NC(=O)c3nc(NC(=O)CCCOc4cc5c(cc4OC)C(=O)N4c6ccccc6C[C@H]4C=N5)cn3C)ccc2s1
IC50 (NAMALVA): 0.01 nM

COc1cc2c(cc1OCCCC(=O)Nc1cn(C)c(C(=O)Nc3ccc(N)cc3)n1)N=C[C@@H]1Cc3ccccc3N1C2=O
IC50 (KB): 0.2 nM | IC50 [1]: 0.4 nM | IC50 (NAMALVA): 0.06 nM

COc1cc2c(cc1OCCCC(=O)Nc1cn(C)c(C(=O)Nc3ccc(-c4cc(C(=O)NCC(C)(C)SSC)n(C)c4)cc3)n1)N=C[C@@H]1Cc3ccccc3N1C2=O
IC50 (KB): 0.04 nM | IC50 [1]: 0.06 nM | IC50 (NAMALVA): 0.01 nM

COc1cc2c(cc1OCCCC(=O)Nc1cn(C)c(C(=O)Nc3ccc4sc(C(=O)NCC(C)(C)SSC)cc4c3)n1)N=C[C@@H]1Cc3ccccc3N1C2=O
IC50 (NAMALVA): 0.03 nM

COc1cc2c(cc1OCCCC(=O)Nc1cn(C)c(C(=O)Nc3ccc(-c4cc(C(=O)NCC(C)(C)SSC)n(C)c4)cc3)n1)N=C[C@@H]1Cc3ccccc3CN1C2=O
IC50 (KB): 0.006 nM | IC50 [1]: 0.01 nM | IC50 (NAMALVA): 0.001 nM

COc1cc2c(cc1OCCCC(=O)Nc1cc(C(=O)Nc3ccc(-c4cc(C(=O)NCC(C)(C)SSC)n(C)c4)cc3)n(C)c1)N=C[C@@H]1Cc3ccccc3N1C2=O
IC50 (KB): 0.01 nM | IC50 [1]: 0.1 nM | IC50 (NAMALVA): 0.03 nM

COC(=O)CCNC(=O)c1cc2cc(NC(=O)c3cc(NC(=O)CCCOc4cc5c(cc4OC)C(=O)N4c6ccccc6C[C@H]4C=N5)cn3C)ccc2o1
IC50 (KB): 0.2 nM | IC50 [1]: 0.5 nM | IC50 (NAMALVA): 0.06 nM

COC(=O)CCNC(=O)c1cc2cc(NC(=O)c3cc(NC(=O)CCCOc4cc5c(cc4OC)C(=O)N4c6ccccc6C[C@H]4C=N5)cn3C)ccc2s1
IC50 (KB): 0.04 nM | IC50 [1]: 0.2 nM | IC50 (NAMALVA): 0.03 nM

COc1cc2c(cc1OCCCC(=O)Nc1cn(C)c(C(=O)Nc3ccc4sccc4c3)n1)N=C[C@@H]1Cc3ccccc3N1C2=O
IC50 (KB): 0.04 nM | IC50 [1]: 0.08 nM | IC50 (NAMALVA): 0.02 nM

COc1cc2c(cc1OCCCC(=O)Nc1nc(C(=O)Nc3ccc(NC(=O)CCC(C)(C)SSC)cc3)cs1)N=C[C@@H]1Cc3ccccc3N1C2=O
IC50 (KB): 0.1 nM | IC50 [1]: 0.6 nM | IC50 (NAMALVA): 0.03 nM

COC(=O)c1cc2cc(NC(=O)c3cc(NC(=O)CCCOc4cc5c(cc4OC)C(=O)N4c6ccccc6C[C@H]4C=N5)cn3C)ccc2s1
IC50 (KB): 0.01 nM | IC50 [1]: 0.05 nM | IC50 (NAMALVA): 0.02 nM

COc1cc2c(cc1OCCCC(=O)Nc1cc(C(=O)Nc3ccc4sc(C(=O)NCC(C)(C)SSC)cc4c3)n(C)c1)N=C[C@@H]1Cc3ccccc3CN1C2=O
IC50 (KB): 0.005 nM | IC50 [1]: 0.03 nM | IC50 (NAMALVA): 0.002 nM

Source: ChEMBL document CHEMBL4346749, “Design, synthesis and evaluation of novel, potent DNA alkylating agents and their antibody-drug conjugates (ADCs)” (Bioorg Med Chem Lett, 2019)
